Laboratory results from publication PMC9916969 (International Journal of Molecular Sciences, 2023).
Like-named read-outs stand apart in the source and are kept apart here.

Assays:
equine serum BChE = molecular target: T1, equine serum BChE (Equus caballus, UniProt P81908); assay: biochemical; conditions: mean ± SEM, n = 3, read-out: Inhibitory activity against BChE, IC50
T1 construct: human erythrocyte AChE, equine serum BChE, and porcine liver CES were used; purchased Sigma-Aldrich; host or cells: equine serum (tissue-derived)
T1 sequence (P81908 whole entry): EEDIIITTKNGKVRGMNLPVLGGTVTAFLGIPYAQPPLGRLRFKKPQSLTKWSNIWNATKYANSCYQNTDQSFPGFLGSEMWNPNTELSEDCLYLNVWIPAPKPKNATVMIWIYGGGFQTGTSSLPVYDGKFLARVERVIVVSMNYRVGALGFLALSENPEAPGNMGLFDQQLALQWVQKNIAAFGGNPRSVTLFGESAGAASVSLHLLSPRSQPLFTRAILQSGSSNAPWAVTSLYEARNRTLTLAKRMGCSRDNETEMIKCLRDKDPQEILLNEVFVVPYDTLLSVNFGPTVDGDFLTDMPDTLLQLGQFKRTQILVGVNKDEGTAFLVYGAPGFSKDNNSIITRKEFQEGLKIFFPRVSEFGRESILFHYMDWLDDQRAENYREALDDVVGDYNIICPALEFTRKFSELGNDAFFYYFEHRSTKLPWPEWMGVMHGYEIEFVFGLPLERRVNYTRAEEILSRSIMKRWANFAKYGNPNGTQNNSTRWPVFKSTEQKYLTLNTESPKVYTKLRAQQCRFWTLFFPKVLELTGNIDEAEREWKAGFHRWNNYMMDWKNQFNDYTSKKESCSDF
Description: (§1) Assessment of the esterase profile of new potential anti-AD molecules enables the estimation of both the primary pharmacological effects of the tested compounds—their inhibition of AChE and BChE—and their possible unwanted side effect—inhibition of CES, which hydrolyzes numerous ester-containing drugs. For the esterase profile evaluation, human erythrocyte AChE, equine serum BChE, and porcine liver CES were used. These sources of BChE and CES were employed because of their relatively low cost, high sequence identity to human enzymes, and the exploratory character of this work.
(§2) Chromophore absorbances were measured with a FLUOStar Optima microplate reader (BMG Labtech, Ortenberg, Germany). […] Initially, we used a single concentration of 20 µM for all compounds.

human erythrocyte AChE = molecular target: T2, human erythrocyte AChE (Homo sapiens, UniProt P22303); assay: biochemical; conditions: mean ± SEM, n = 3, read-out: Inhibitory activity against AChE, IC50
T2 construct: human erythrocyte AChE, equine serum BChE, and porcine liver CES were used; purchased Sigma-Aldrich; host or cells: human erythrocytes (tissue-derived)
T2 sequence (P22303 32-617 isoform P22303-2 limits assumed): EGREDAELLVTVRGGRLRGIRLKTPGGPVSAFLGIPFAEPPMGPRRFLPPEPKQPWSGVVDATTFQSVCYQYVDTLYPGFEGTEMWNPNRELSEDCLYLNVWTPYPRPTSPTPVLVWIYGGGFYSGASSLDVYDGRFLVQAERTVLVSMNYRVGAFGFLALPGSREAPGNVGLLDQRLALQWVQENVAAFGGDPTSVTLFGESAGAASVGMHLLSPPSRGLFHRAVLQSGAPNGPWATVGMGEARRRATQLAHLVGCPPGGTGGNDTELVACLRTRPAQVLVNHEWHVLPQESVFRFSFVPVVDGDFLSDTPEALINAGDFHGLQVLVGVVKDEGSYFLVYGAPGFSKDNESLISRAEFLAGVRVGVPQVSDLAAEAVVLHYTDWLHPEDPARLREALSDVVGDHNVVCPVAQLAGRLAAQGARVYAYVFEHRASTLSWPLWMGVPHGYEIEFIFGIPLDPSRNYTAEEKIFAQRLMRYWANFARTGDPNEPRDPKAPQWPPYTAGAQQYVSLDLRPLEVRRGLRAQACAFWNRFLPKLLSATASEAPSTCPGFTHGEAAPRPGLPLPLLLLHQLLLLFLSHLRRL
Description: as §1, §2

porcine liver CES = assay: In vitro CES inhibition (4-NPA substrate); format: biochemical; conditions: compound 20 µM, n.a. = not active
Description: as §1, §2

EeAChE PAS = molecular target: T3, EeAChE PAS (Electrophorus electricus, UniProt O42275); format: binding; conditions: compound 20 µM; EeAChE 7 µM; propidium iodide 8 µM
T3 construct: The enzyme was electric eel AChE (EeAChE type VI-S, lyophilized powder, Sigma-Aldrich); purchased Sigma-Aldrich type VI-S; host or cells: electric eel (tissue-derived)
T3 sequence (O42275 24-633): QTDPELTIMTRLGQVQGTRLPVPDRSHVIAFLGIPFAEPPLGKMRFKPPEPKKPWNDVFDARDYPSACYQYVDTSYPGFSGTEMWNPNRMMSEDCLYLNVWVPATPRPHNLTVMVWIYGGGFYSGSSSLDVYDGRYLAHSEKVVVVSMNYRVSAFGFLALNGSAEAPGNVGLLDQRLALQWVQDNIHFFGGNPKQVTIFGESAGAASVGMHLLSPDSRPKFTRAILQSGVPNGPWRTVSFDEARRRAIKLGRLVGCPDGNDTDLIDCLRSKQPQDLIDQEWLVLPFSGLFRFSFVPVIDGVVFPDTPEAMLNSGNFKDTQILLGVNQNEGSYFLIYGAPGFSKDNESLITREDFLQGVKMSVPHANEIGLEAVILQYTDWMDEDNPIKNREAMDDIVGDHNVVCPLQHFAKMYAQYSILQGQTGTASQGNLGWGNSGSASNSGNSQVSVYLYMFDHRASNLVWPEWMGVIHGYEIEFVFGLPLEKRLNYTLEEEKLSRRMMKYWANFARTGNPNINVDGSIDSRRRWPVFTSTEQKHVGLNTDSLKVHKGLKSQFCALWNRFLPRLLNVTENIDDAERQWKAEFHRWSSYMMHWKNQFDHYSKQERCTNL
Description: This method is widely used as a screening approach to assess the potential ability of compounds to block AChE-induced β-amyloid aggregation. This is because when the compounds bind to the AChE PAS, they prevent the binding of β-amyloid, thereby inhibiting its aggregation.
The enzyme was electric eel AChE (EeAChE type VI-S, lyophilized powder, Sigma-Aldrich). We selected this source of AChE for consistency with our other reports and because of the purity, specific activity, and lower cost compared to human AChE.
Propidium iodide (final concentration 8 μM) was then added for a further 15 min incubation, and the fluorescence spectrum was taken (530 nm excitation and 600 nm emission) using a FLUOStar Optima microplate reader. The same concentration of propidium iodide in the Tris buffer was used as the blank. Triplicate determinations were recorded and the results were calculated via the following equation:% Displacement = 100 − (IFAChE+ Propidium + inhibitor/IFAChE + Propidium) × 100, where IFAChE + Propidium = fluorescence intensity of propidium iodide associated with AChE in the absence of the test compound (taken as 100%), and IFAChE + Propidium + inhibitor = fluorescence intensity of propidium iodide associated with AChE in the presence of the test compound.

[1] = ethanol, difference spectra, two bands, cited from earlier work
[2] = ethanol, difference spectra, two bands, cited from earlier work; remark: listed apart in the source
[3] = ethanol, difference spectra, two bands, cited from earlier work; remark: listed apart in the source
FRAP assay = conditions: Trolox equivalents; 60 min, 37 °C; n.a. = not active
Procedure: The Ferric Reducing Antioxidant Power (FRAP) test involves reduction of the ferric 2,4,6-tripyridyl-s-triazine complex [Fe(TPTZ)2]^3+ to an intense-blue ferrous complex [Fe(TPTZ)2]^2+ [92], as previously reported. Results are given as Trolox Equivalents (TE).
The FRAP (ferric reducing antioxidant power) assay proposed by Benzie and Strain [92] was modified to be performed in 96-well microplates as described in detail in [53]. The FRAP reagent contained 2.5 mL of 10 mM TPTZ (2,4,6-tris(2-pyridyl)-s-triazine, Sigma-Aldrich) solution in 40 mM HCl, 2.5 mL of 20 mM FeCl3 (Sigma-Aldrich) in distilled water and 25 mL of 0.3 M acetate buffer (pH 3.6). Aliquots of 10 µL of the test compound dissolved in DMSO (0.5 mM) were placed in quadruplicate. Absorbance was measured at a wavelength of 593 nm after 60 min incubation at 37 °C. In each case, Trolox was used as a reference compound to obtain the standard curve. The AO activity was calculated with respect to the activity of Trolox and expressed as Trolox equivalents (TE)—the values calculated as the ratio of the concentrations of Trolox and the test compound resulting in the same effect on ferric reducing activity.

[4] = Metal chelation by UV-Vis spectroscopy, Cu2+; conditions: ethanol, 25 °C; compound and metal 40 μM; difference spectra; two bands per compound
[5] = Metal chelation by UV-Vis spectroscopy, Zn2+; conditions: ethanol, 25 °C; compound and metal 40 μM; difference spectra; two bands per compound
AChE = molecular target: T4, AChE (Homo sapiens, UniProt P22303); assay: Kinetic study of AChE inhibition (Lineweaver-Burk); format: biochemical; conditions: for αKi (non-competitive inhibition constant), AChE: mixed-type inhibition, mean ± SEM; for Ki: read-out: Ki (competitive inhibition constant), AChE
T4 construct: human erythrocyte AChE, equine serum BChE, and porcine liver CES were used; purchased Sigma-Aldrich; host or cells: human erythrocytes (tissue-derived)
T4 sequence (P22303 32-617 isoform P22303-2 limits assumed): as the sequence (P22303 32-617 isoform P22303-2 limits assumed) above
Procedure: (§3) We assessed the mechanisms of AChE and BChE inhibition by performing a thorough analysis of enzyme kinetics. After a 5 min incubation at 25 °C (for temperature equilibration) with three increasing concentrations of inhibitor and six decreasing substrate concentrations, the residual enzyme activity was measured as described above for enzymatic assays.

eqBChE = molecular target: T5, eqBChE (Equus caballus, UniProt P81908); assay: Kinetic study of BChE inhibition (Lineweaver-Burk); format: biochemical; conditions: for αKi (non-competitive inhibition constant), eqBChE: mixed-type inhibition, mean ± SEM; for Ki: read-out: Ki (competitive inhibition constant), eqBChE
T5 construct: human erythrocyte AChE, equine serum BChE, and porcine liver CES were used; purchased Sigma-Aldrich; host or cells: equine serum (tissue-derived)
T5 sequence (P81908 whole entry): as the sequence (P81908 whole entry) above
Procedure: Similar results were obtained for other tested compounds (Figures S61 and S62). The obtained values of inhibition constants (Ki = competitive component and αKi = non-competitive component) are shown in Table 2.
as §3

[6] = absorption band at 337, 323, 308 nm

SMILES	IC50 (equine serum BChE) [nM]	IC50 (human erythrocyte AChE) [nM]	Inhibitory activity against CES, inhibition at 20 µM (porcine liver CES) [%]	Propidium Displacement from EeAChE PAS (EeAChE PAS) [%]	Shift of Absorbance, Cu(II) ([1]; absorption band at 237 nm) [nm]	Shift of Absorbance, Cu(II) [1, 6] [nm]	Shift of Absorbance, Fe(II) ([2]; absorption band at 237 nm) [nm]	Shift of Absorbance, Fe(II) [2, 6] [nm]	Shift of Absorbance, Zn(II) ([3]; absorption band at 237 nm) [nm]	Shift of Absorbance, Zn(II) [3, 6] [nm]	FRAP, TE (FRAP assay)	Shift of Absorbance, Cu(II) [4] [nm]	Shift of Absorbance, Zn(II) [5] [nm]	αKi (non-competitive inhibition constant), AChE (AChE) [µM]	Ki (AChE) [nM]	αKi (non-competitive inhibition constant), eqBChE (eqBChE) [µM]	Ki (eqBChE) [nM]	Type of AChE inhibition (AChE; Lineweaver–Burk analysis)	Type of BChE inhibition (eqBChE; Lineweaver–Burk analysis)
O=C(NCCCCCCNc1c2c(nc3ccccc13)CCCC2)c1ccccc1O [5b]	11.9 ± 0.1	294 ± 8	19.5 ± 0.9	12.6 ± 1.0	254	352	254	351	254	351	–	–	–	–	–	–	–	–	–
O=C(NCCCCCCNc1c2c(nc3ccccc13)CCCC2)c1cc(F)c(F)cc1O [7b]	31.7 ± 3	249 ± 17	7.1 ± 1.0	12.2 ± 0.9	–	–	–	–	–	–	0.03	253	352	–	–	–	–	–	–
O=C(NCCCCCCCCNc1c2c(nc3ccccc13)CCCC2)c1cc(F)c(F)cc1O [7c]	22.6 ± 1.8	188 ± 15	8.6 ± 0.7	13.6 ± 1.0	–	–	–	–	–	–	0.06	–	–	0.134 ± 0.009	125 ± 3	0.0243 ± 0.0001	17.3 ± 0.6	–	–
Oc1ccccc1/C=N/CCCCCCCCNc1c2c(nc3ccccc13)CCCC2 [10c]	15.6 ± 1.2	82.6 ± 4.6	23.0 ± 0.3	19.8 ± 1.7	–	–	–	–	–	–	–	–	–	0.0644 ± 0.0040	29.9 ± 2.1	0.0152 ± 0.0009	8.4 ± 0.6	mixed type of inhibition	mixed type of inhibition
